Reference: patent US4681894A, “Hydroxamic acids and esters” (Ortho Pharmaceutical Corporation, priority 1986, dated 1987)

Legend:
[1] = biological target: T1, 5-lipoxygenase (Rattus norvegicus, UniProt P12527); assay: Inhibition of 5-lipoxygenase (5-HETE production) in whole RBL-1 cells; type: cell-based; conditions: in vitro, RBL-1 whole cells, A23187 1.9 μM, 55 μM 14C-arachidonic acid, 37° C; highest concentration tested 10 μM; read-out: IC50 (lipoxygenase inhibitory activity)
T1 construct: 5-HETE Production in Whole Cells; endogenous in cells; host or cells: RBL-1 (rat basophilic leukemia cells)
T1 sequence (P12527 1-673): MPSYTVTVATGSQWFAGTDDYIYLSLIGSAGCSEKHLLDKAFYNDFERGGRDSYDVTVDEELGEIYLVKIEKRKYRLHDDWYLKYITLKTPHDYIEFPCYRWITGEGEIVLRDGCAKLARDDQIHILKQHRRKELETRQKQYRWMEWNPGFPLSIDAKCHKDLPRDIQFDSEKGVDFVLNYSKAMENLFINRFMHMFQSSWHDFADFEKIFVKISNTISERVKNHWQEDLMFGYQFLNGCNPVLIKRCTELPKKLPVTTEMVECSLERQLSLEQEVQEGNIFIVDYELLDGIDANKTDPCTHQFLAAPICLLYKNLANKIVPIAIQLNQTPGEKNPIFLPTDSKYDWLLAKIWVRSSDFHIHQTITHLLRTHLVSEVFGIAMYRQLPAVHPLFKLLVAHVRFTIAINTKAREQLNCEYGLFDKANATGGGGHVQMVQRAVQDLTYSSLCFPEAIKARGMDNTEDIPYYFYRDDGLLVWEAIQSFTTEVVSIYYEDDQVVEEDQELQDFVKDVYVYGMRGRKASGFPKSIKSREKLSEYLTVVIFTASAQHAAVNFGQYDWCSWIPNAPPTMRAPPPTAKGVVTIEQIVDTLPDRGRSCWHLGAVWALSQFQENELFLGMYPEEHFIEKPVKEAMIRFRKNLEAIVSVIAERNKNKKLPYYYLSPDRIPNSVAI
Protocol: Rat basophilic leukemia cells (RBL-1) were grown in Eagle's Minimal Essential Medium containing 10% fetal calf serum. 5% calf serum, 1% glutamine and 50 mg/l gentamycin were maintained at 37° C. in an atmosphere containing 5% CO2. Exponentially growing cells were harvested by centrifugation at 400×g for 10 minutes at 4° C. and were washed once with Dulbecco's phosphate buffered saline containing 0.87 mM CaCl2. The cells were resuspended in the same buffer at a concentration of 1.85×10^7 cells/ml.
RBL-1 cells (1.57×10^7 cells/tube) were preincubated for 10 minutes at 37° C. in the presence of the indicated drugs or vehicle (1% DMSO). Following the transfer of the assay tubes to an icebath, the reaction was initiated by the sequential addition of calcium ionophore A23187, an agent which increases the ability of divalent ions such as Ca^++ to cross biological membranes (final concentration=1.9 μM) and 55 μM 1-^14 C-arachidonic acid (New England Nuclear) at a final specific activity of 3000-4000 cpm/nmole. The final volume in each tube was 1 ml. The assay tubes were incubated at 37° C. for 5 minutes, and the reaction was stopped by transferring the tubes to ice and adjusting the pH of the reaction mixture to pH 3.0-3.5 by the addition of 1M citric acid.
In order to isolate the Δ5 -lipoxygenase product, ^14 C-5-HETE that was formed from arachidonic acid, each assay tube was extracted once with 6 volumes of anhydrous diethyl ether. In most assays, the recovery of product was estimated by determining the total amount of radioactivity recovered after extraction. In the remaining assays the recovery of ^14 C-5-HETE was monitored by addition of trace quantities of ^3 H-5-HETE (New England Nuclear) prior to extraction. The ether fractions from each sample were dried under nitrogen, redissolved and spotted on Gleman silica gel-impregnated glass fiber sheets. The plates were developed in iso-octane:2-butanone:glacial acetic acid (100:9:1). The area of each plate corresponding to added 5-HETE standard was visualized in an iodine chamber. The amount of ^14 C-5-HETE presented was quantitated by liquid scintillation counting in Aquasol II (New England Nuclear) and corrected for recovery. The percent inhibition of lipoxygenase activity represents the decrease in the amount of product formed from arachidonic acid by the cells or cell supernatant in the presence of drug. The values for negative controls (assays incubated on ice in the presence of citric acid) were always less than 10% of the positive controls and were subtracted from each tube. The IC50 is the concentration of drug which is required for 50% inhibition of the enzyme, as determined graphically from assays using multiple concentrations of drug.

[2] = test system: Lewis strain laboratory rats; assay: In vivo alleviation of inflammation: Mycobacterium butyricum-induced polyarthritis, inhibition of paw volume increase; parameters: species or system rat (Lewis strain); conditions: Rattus norvegicus, po, five consecutive days from day 10, paw volume about 4 h after final dose, read-out: % Inhibition Oral Dosage (percentage inhibition of pad swelling); for inhibition in vivo at 50 mg/kg: 50 mg/kg p.o.
Protocol: Polyarthritis was induced in Lewis strain laboratory rats (weight=about 200 grams) by injection of a suspension of Mycobacterium butyricum in mineral oil into the subplantar tissue of the mammals' hind paws. On day 10 after the injection, the rats were assigned to groups, and paw volumes and body weights were recorded. Paw volumes of the contralateral, uninjected hind paw were determined by mercury plethylsmography. Per os (p.o.) dosing began and continued for five consecutive days thereafter. On day 14 after the initial injection, approximately four hours after the final dose was administered, paw volumes and body weights were recorded and quantitated.
Anti-inflammatory activity of the substituted naphthalene compounds is expressed as the present inhibition of paw volume increase.

IC50 [1] [nM] | Compound | inhibition in vivo at 50 mg/kg [2] [%] | inhibition in vivo at 22 mg/kg ([2]; 22 mg/kg p.o.) [%] | inhibition in vivo at 40 mg/kg ([2]; 40 mg/kg p.o.) [%]
400 | COc1ccc2cc(C(=O)CCCCC(=O)N(O)C3CCCCC3)ccc2c1 [Example 21, N-Hydroxy-N-cyclohexyl-6-(6-methoxy-2-naphthyl)-6-oxohexanamide] | 33 |  | 
110 | CCN(O)C(=O)CCCCC(=O)c1ccc2cc(OC)ccc2c1 [Example 17, N-Ethyl-N-hydroxy-6-(6-methoxy-2-naphthyl)-6-oxohexanamide] | 23 |  | 
 | COC(=O)CCCCCCC(=O)c1ccc2cc(OC)ccc2c1 [Example 4, Methyl 8-(6-methoxy-2-naphthyl)-8-oxooctanoate] | 53 |  | 
450 | COc1ccc2cc(C(=O)CCCCC(=O)N(O)C(C)(C)C)ccc2c1 [Example 20, N-tert-Butyl-N-hydroxy-6-(6-methoxy-2-naphthyl)-6-oxohexanamide] |  |  | 
120 | COc1ccc2cc(C(=O)CCCCC(=O)N(O)C(C)C)ccc2c1 [Example 24, N-Hydroxy-N-isopropyl-6-(6-methoxy-2-naphthyl)-6-oxohexanamide] | 51 |  | 
> 10000 | CCOC(=O)CCCCC(=O)c1ccc2cc(OC)ccc2c1 [Example 2, Ethyl 6-(6-methoxy-2-naphthyl)-6-oxohexanoate] |  | 50 | 
 | C#CCOc1ccc2cc(C(=O)CCCCC(=O)OCC)ccc2c1 [Example 14, Ethyl 6-(6-propynyloxy-2-naphthyl)-6-oxohexanoate] | 23 |  | 
250 | COc1ccc2cc(C(=O)CCCCC(=O)N(C)O)ccc2c1 [Example 15, N-Hydroxy-N-methyl-6-(6-methoxy-2-naphthyl)-6-oxohexanamide] |  |  | 34
> 10000 | CCOC(=O)CCCCC(=O)c1ccc2cc(O)ccc2c1 [Example 8, Ethyl 6-(6-hydroxy-2-naphthyl)-6-oxohexanoate] | 12 |  | 
370 | CCCCN(O)C(=O)CCCCC(=O)c1ccc2cc(OC)ccc2c1 [Example 18, N-Butyl-N-hydroxy-6-(6-methoxy-2-naphthyl)-6-oxohexanamide] |  |  | 
1600 | CCCCCCCN(O)C(=O)CCCCC(=O)c1ccc2cc(OC)ccc2c1 [Example 19, N-Heptyl-N-hydroxy-6-(6-methoxy-2-naphthyl)-6-oxohexanamide] |  |  | 
100 | COc1ccc2cc(C(=O)CCCCC(=O)N(O)c3ccccc3)ccc2c1 [Example 22, N-Hydroxy-N-phenyl-6-(6-methoxy-2-naphthyl)-6-oxohexanamide] | 28 |  | 
> 10000 | COc1ccc2cc(C(=O)CCCCC(=O)N(C)OC)ccc2c1 [Example 23, N-Methoxy-N-methyl-6-(6-methoxy-2-naphthyl)-6-oxohexanamide] | 60 |  | 
> 10000 | C=CCOc1ccc2cc(C(=O)CCCCC(=O)OCC)ccc2c1 [Example 12, Ethyl 6-(6-allyloxy-2-naphthyl)-6-oxohexanoate] | 44 |  | 
 | COc1ccc2cc(C(=O)CCCCCCC(=O)O)ccc2c1 [Example 6, 8-(6-Methoxy-2-naphthyl)-8-oxooctanoic acid] | 47 |  | 
10000 | COc1ccc2cc(C(=O)CCCCC(=O)NO)ccc2c1 [Example 16, N-Hydroxy-6-(6-methoxy-2-naphthyl)-6-oxohexanamide] |  |  | 
 | CCOC(=O)CCCCCCC(=O)c1ccc2cc(OC)ccc2c1 [Example 1, Ethyl 8-(6-methoxy-2-naphthyl)-8-oxooctanoate] | 48 |  | 
